Consider 28 compounds from patent US11725000B2, “Apoptosis inhibitors” (National Institute of Biological Sciences, Beijing, priority 2017, dated 2023).

The EC50 is the concentration at which the effect is half-maximal.

One experiment deals with U2OS_Bim cells. As to the kind of experiment: Apoptosis inhibition assay (Bim-induced apoptosis, cell viability by ATP level). Type of experiment: cell-based.
Conditions: not given
In outline: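 Apoptosis was triggered by doxycycline (0.1 μg/mL) induction of Bim, one hour after compound addition to U2OS_Bim cells. Survival was measured after 24 h from cellular ATP (CellTiter-Glo), relative to DMSO, with zVAD at 20 μM as rescue control. Data are duplicate means, some estimated from preliminary results.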
Consider `CS(=O)(=O)c1nc(-c2cccc(OCc3ccccc3)c2)cc(C(F)(F)F)n1` [Compound 75, 4-(3-(benzyloxy)phenyl)-2-(methylsulfonyl)-6-(trifluoromethyl)pyrimidine], for which the EC50 was in the range of 1000 to 20000 nM.

Still in this experiment, the particulars now being: U2OS_Bim cells; estimated (*Est.) / preliminary results; numbering of Tables 4a/4b; read-out: EC50.
`Cc1cc(-c2cc(F)c(=O)n(Cc3ccc4ccn(C)c4c3)c2)nc(S(=O)(=O)CCC(OCc2ccccc2F)c2ccccc2)n1` (stereo not shown) [Compound 349]: the EC50 was 1 to 1000 nM.

On to `Cc1cc(-c2cc(F)c(=O)n(Cc3ccc4c(c3)OCO4)c2)nc(S(=O)(=O)CCC(OCc2cncs2)c2ccccc2)n1` (stereo not shown) [Compound 406], for which the 50% effective concentration (EC50) is 1 to 1000 nM.

`Cc1cc(-c2cc(F)c(=O)n(Cc3ccc4c(c3)n(C)c(=O)n4C)c2)nc(S(=O)(=O)CCC(OCc2ccccc2F)c2ccccc2)n1` (stereo not shown) [Compound 342]: the half-maximal effective concentration (EC50) was 1 to 1000 nM.

Turning to `Cc1cc(-c2cc(F)c(=O)n(Cc3ccc4nnn(C)c4c3)c2)nc(S(=O)(=O)CCCN(c2ccccc2)C(C)(C)C)n1` [Compound 380], the EC50 was 1 to 1000 nM.

For the compound `Cc1cc(-c2cc(F)c(=O)n(Cc3ccc4nnn(C)c4c3)c2)nc(S(=O)(=O)CCCn2cnc3ccccc32)n1` [Compound 337, 5-(2-((3-(1H-benzo[d]imidazol-1-yl)propyl)sulfonyl)-6-methylpyrimidin-4-yl)-3-fluoro-1-((1-methyl-1H-benzo[d][1,2,3]triazol-6-yl)methyl)pyridin-2 (1H)-one], the EC50 is 1 to 1000 nM.

Take `Cc1cc(-c2cc(F)c(=O)n(Cc3ccc4c(c3)NC(=O)CO4)c2)nc(S(=O)(=O)CCC(OCc2ccccc2F)c2ccccc2)n1` (stereo not shown) [Compound 344]: the EC50 was 1 to 1000 nM.

With `Cc1cc(-c2cc(F)c(=O)n(Cc3ccc4c(c3)OCO4)c2)nc(S(=O)(=O)CCC(OCC2CCN(C)CC2)c2ccccc2)n1` (stereo not shown) [Compound 411], the 50% effective concentration (EC50) is 1 to 1000 nM.

Still in this experiment, the particulars now being: U2OS_Bim cells; estimated based on preliminary results; numbering of Tables 4a/4b; read-out: EC50.
Take `COc1ccc(Cn2cc(-c3cc(C(F)(F)F)nc([S+]([O-])Cn4ncnn4)n3)ccc2=O)cc1OC` (stereo not shown) [Compound 193]: the EC50 was less than 10000 nM.

`CS(=O)(=O)c1nc(-c2ccc(=O)n(Cc3ccc4c(c3)NCCN4)c2)cc(C(F)(F)F)n1` [Compound 234]: the EC50 was less than 10000 nM.

Consider `CS(=O)(=O)c1nc(-c2ccc(=O)n(Cc3ccc4ocnc4c3)c2)cc(C(F)(F)F)n1` [Compound 224], for which the half-maximal effective concentration (EC50) is less than 10000 nM.

Consider `COc1ccc(Cn2cc(-c3cc(C(F)(F)F)nc([S+]([O-])Cc4ccccn4)n3)ccc2=O)cc1OC` (stereo not shown) [Compound 187], for which the EC50 was less than 10000 nM.

For `COc1ccc(Cn2cc(-c3cc(-c4ccc[nH]4)nc(S(C)(=O)=O)n3)ccc2=O)cc1OC` [Compound 204], the EC50 was less than 10000 nM.

The same experiment, now with this note: U2OS_Bim cells; means of duplicates; numbering of Tables 4a/4b; read-out: EC50.
Take `CCCOc1cccc(Cn2cc(-c3cc(C(F)(F)F)nc(S(C)(=O)=O)n3)ccc2=O)c1` [Compound 113, 5-(2-(methylsulfonyl)-6-(trifluoromethyl)pyrimidin-4-yl)-1-(3-propoxybenzyl)pyridin-2 (1H)-one]: the EC50 fell in the range of 1 to 1000 nM.

Turning to `CS(=O)(=O)c1nc(N=[N+]=[N-])cc(-c2cccs2)n1` [Compound 41, 4-azido-2-(methylsulfonyl)-6-(thiophen-2-yl)pyrimidine], the EC50 is less than 100000 nM.

Take `Cc1cc(-c2cc(F)c(=O)n(CC3CCOCC3)c2)nc([S+]([O-])CCC(OCc2ccc(F)cc2F)c2ccccc2)n1` (stereo not shown) [Compound 313, 5-(2-(3-(2,4-difluorobenzyloxy)-3-phenylpropylsulfinyl)-6-methylpyrimidin-4-yl)-3-fluoro-1-((tetrahydro-2H-pyran-4-yl)methyl)pyridin-2 (1H)-one]: the EC50 was 1000 to 10000 nM.

Take `CS(=O)(=O)c1nc(-c2cccs2)cc(N2CCCC2=O)n1` [Compound 38, 1-(2-(methylsulfonyl)-6-(thiophen-2-yl)pyrimidin-4-yl)pyrrolidin-2-one]: the EC50 is less than 100000 nM.

`CS(=O)(=O)c1nc(-c2cccc(Cn3ccccc3=O)c2)cc(C(F)(F)F)n1` [Compound 70, 1-(3-(2-(methylsulfonyl)-6-(trifluoromethyl)pyrimidin-4-yl)benzyl) pyridin-2 (1H)-one]: the EC50 was in the range of 1000 to 10000 nM.

Consider `CS(=O)(=O)c1nc(-c2ccc(=O)n(Cc3cccc(C#N)c3)c2)cc(C(F)(F)F)n1` [Compound 118, 3-((5-(2-(methylsulfonyl)-6-(trifluoromethyl)pyrimidin-4-yl)-2-oxopyridin-1 (2H)-yl)methyl)benzonitrile], for which the EC50 was 1000 to 20000 nM.

Take `CS(=O)(=O)c1nc(-n2cccn2)cc(C(F)(F)F)n1` [Compound 83, 2-(methylsulfonyl)-4-(1H-pyrazol-1-yl)-6-(trifluoromethyl)pyrimidine]: the half-maximal effective concentration (EC50) is 1000 to 10000 nM.

For `CS(=O)(=O)c1nc(-c2ccc(=O)n(Cc3ccccc3Cl)c2)cc(C(F)(F)F)n1` [Compound 104, 1-(2-chlorobenzyl)-5-(2-(methylsulfonyl)-6-(trifluoromethyl)pyrimidin-4-yl)pyridin-2 (1H)-one], the concentration for a half-maximal effect (EC50) is 1 to 1000 nM.

With `CS(=O)(=O)c1nc(-c2ccc(=O)n(Cc3ccc4ccccc4c3)c2)cc(C(F)(F)F)n1` [Compound 134, 5-(2-(methylsulfonyl)-6-(trifluoromethyl)pyrimidin-4-yl)-1-(naphthalen-2-ylmethyl)pyridin-2 (1H)-one], the EC50 lay within 1000 to 10000 nM.

For the compound `COc1ccc(Cn2cc(-c3cc(C(F)(F)F)nc(S(=O)(=O)CCCC(=O)N4CCCC4)n3)ccc2=O)cc1OC` [Compound 152, 1-(3,4-dimethoxybenzyl)-5-(2-((4-oxo-4-(pyrrolidin-1-yl)butyl)sulfonyl)-6-(trifluoromethyl)pyrimidin-4-yl)pyridin-2 (1H)-one], the EC50 was 1 to 1000 nM.

With `Cc1cc(-c2cnc(OCc3ccc4c(cnn4C)c3)c(F)c2)nc(S(=O)(=O)CCC(OCc2ccccc2F)c2ccccc2)n1` (stereo not shown) [Compound 328, 5-((3-fluoro-5-(2-(3-(2-fluorobenzyloxy)-3-phenylpropylsulfonyl)-6-methylpyrimidin-4-yl)pyridin-2-yloxy)methyl)-1-methyl-1H-indazole], the EC50 is less than 100000 nM.

With `COc1ccc(Cn2cc(-c3cc(C(F)F)nc([S+]([O-])CCC(OCc4ccccc4)c4ccccc4)n3)ccc2=O)cc1OC` (stereo not shown) [Compound 277, 5-(2-((3-(benzyloxy)-3-phenylpropyl)sulfinyl)-6-(difluoromethyl)pyrimidin-4-yl)-1-(3,4-dimethoxybenzyl)pyridin-2 (1H)-one], the concentration giving a half-maximal response (EC50) lay within 1 to 1000 nM.

In the case of `CS(=O)(=O)c1nc(-c2cccc(Oc3ccccc3)c2)cc(C(F)(F)F)n1` [Compound 73, 2-(methylsulfonyl)-4-(3-phenoxyphenyl)-6-(trifluoromethyl)pyrimidine], the concentration giving a half-maximal response (EC50) fell in the range of 1000 to 10000 nM.

For `Cc1cc(-c2cc(F)c(=O)n(Cc3ccc4nsnc4c3)c2)nc(S(=O)(=O)CCC(OCc2ccccc2F)c2ccccc2)n1` (stereo not shown) [Compound 319, 1-(benzo[c][1,2,5]thiadiazol-5-ylmethyl)-3-fluoro-5-(2-(3-(2-fluorobenzyloxy)-3-phenylpropylsulfonyl)-6-methylpyrimidin-4-yl)pyridin-2 (1H)-one], the concentration for a half-maximal effect (EC50) lay within 1 to 1000 nM.

As for `COc1ccc(Cn2cc(-c3cc(C(F)(F)F)nc(S(=O)(=O)CCC(=O)N4CCCCC4)n3)ccc2=O)cc1OC` [Compound 153, 1-(3,4-dimethoxybenzyl)-5-(2-((3-oxo-3-(piperidin-1-yl)propyl)sulfonyl)-6-(trifluoromethyl)pyrimidin-4-yl)pyridin-2 (1H)-one], the concentration for a half-maximal effect (EC50) was 1 to 1000 nM.
